{"source": "patent US7829595B2", "about": "“Rapid dissolution formulation of a calcium receptor-active compound” (Amgen Inc., priority 2003, dated 2010)", "assay": "Solubility of cinacalcet in water as a function of pH", "assay_type": "physicochemical", "method": "Calcium receptor-active compounds are known in the art. One example of a calcium receptor-active compound is cinacalcet HCl, which is described, for example, in U.S. Pat. No. 6,001,884. Such calcium receptor-active compounds may be insoluble or sparingly soluble in water, particularly in their non-ionized state. […] However, when the pH is about 1, the solubility decreases to about 0.1 mg/mL. Such limited solubility can reduce the number of formulation and delivery options available for these calcium receptor-active compounds. Limited water solubility can also result in low bioavailability of the compounds.", "note": "Where two headings read alike, the source gives them in different places.", "data": [{"compound": "C[C@@H](NCCCc1cccc(C(F)(F)F)c1)c1cccc2ccccc12", "note": "[cinacalcet, N-(1-(R)-(1-naphthyl)ethyl]-3-[3-(trifluoromethyl)phenyl]-1-aminopropane]", "values": [{"measurement": "solubility", "setting": "aqueous buffer, pH ranges from about 3 to about 5, read-out: solubility", "result": "~1600", "unit": "µg/mL"}, {"measurement": "solubility", "setting": "pH 1, simulated gastric fluid, pH about 1, read-out: solubility", "result": "~100", "unit": "µg/mL"}, {"measurement": "solubility", "setting": "pH 7, water, neutral pH, read-out: solubility in water", "result": "< 1", "unit": "µg/mL"}]}]}
